Where two headings read alike, the source gives them in different places.
Assays:
[1] = system: forty-four human cancer cell lines; assay: Cell proliferation assay (ATPlite, 72 hours) in the 44 cell line Oncolines panel; format: cell-based; conditions: Homo sapiens
[2] = target: panel of more than 300 wild-type and mutant kinases (313 kinase panel) (Homo sapiens, UniProt P15056, V600E); assay: Kinase profiling in a biochemical assay panel (mobility shift assays and ELISA), %-inhibition at 1 μM; selectivity entropy; conditions: kinase BRAF(V600E); 1 μM compound
[3] = target: panel of more than 300 wild-type and mutant kinases (313 kinase panel) (Homo sapiens, UniProt P00533, L858R/T790M); assay: as above; conditions: kinase EGFR(T790M/L858R); compound at 1 μM
[4] = target: panel of more than 300 wild-type and mutant kinases (313 kinase panel) (Homo sapiens, UniProt P00533, L861Q); assay: as above; conditions: kinase EGFR(L861Q); compound at 1 μM
[5] = target: panel of more than 300 wild-type and mutant kinases (313 kinase panel) (Homo sapiens, UniProt P07947, T348I); assay: as above; conditions: 1 µM
[6] = target: panel of more than 300 wild-type and mutant kinases (313 kinase panel) (Homo sapiens, UniProt Q9UM73, R1275Q); assay: as above; conditions: 1 µM
[7] = target: panel of more than 300 wild-type and mutant kinases (313 kinase panel) (Homo sapiens, UniProt P22612); assay: as above; conditions: kinase PKACγ; 1 μM
[8] = target: panel of more than 300 wild-type and mutant kinases (313 kinase panel) (Homo sapiens, UniProt P00533, T790M); assay: as above; conditions: kinase EGFR(T790M); compound at 1 μM
[9] = target: panel of more than 300 wild-type and mutant kinases (313 kinase panel) (Homo sapiens, UniProt P00533); assay: as above; conditions: kinase EGFR; compound at 1 μM
[10] = target: panel of more than 300 wild-type and mutant kinases (313 kinase panel) (Homo sapiens, UniProt P00519); assay: as above; conditions: 1 µM
[11] = target: panel of more than 300 wild-type and mutant kinases (313 kinase panel) (Homo sapiens, UniProt P35968); assay: as above; conditions: kinase KDR; compound at 1 μM
[12] = target: panel of more than 300 wild-type and mutant kinases (313 kinase panel) (Homo sapiens, UniProt P15056); assay: as above; conditions: kinase BRAF; 1 μM compound
[13] = target: panel of more than 300 wild-type and mutant kinases (313 kinase panel) (Homo sapiens, UniProt P00533, L858R); assay: as above; conditions: kinase EGFR(L858R); compound at 1 μM
[14] = target: panel of more than 300 wild-type and mutant kinases (313 kinase panel) (Homo sapiens, UniProt P11362, V561M); assay: as above; conditions: kinase FGFR1(V561M); compound at 1 μM
[15] = target: panel of more than 300 wild-type and mutant kinases (313 kinase panel) (Homo sapiens, UniProt P00519, E255K); assay: as above; conditions: 1 µM

N#CC[C@H](C1CCCC1)n1cc(-c2ncnc3[nH]ccc23)cn1 [ruxolitinib]
IC50 ([1]; 4-4 cell, read-out: cell panel IC50, J82): > 31.6 µM | IC50 ([1]; 4-4 cell, read-out: cell panel IC50, PA-1): 26.9 µM | IC50 ([1]; 4-4 cell, read-out: cell panel IC50, SJCRH30): 25.4 µM | IC50 ([1]; 4-4 cell, read-out: cell panel IC50, SR): 4.44 µM | IC50 ([1]; 769-P, read-out: cell panel IC50, 769-P): 18.4 µM | IC50 ([1]; 786-0, read-out: cell panel IC50, 786-0): > 31.6 µM | IC50 ([1]; A 172, read-out: cell panel IC50, A-172): 31.5 µM | IC50 ([1]; A204, read-out: cell panel IC50, A-204): > 31.6 µM | IC50 ([1]; A498, read-out: cell panel IC50, A-498): > 31.6 µM | IC50 ([1]; A549, read-out: cell panel IC50, A-549): 21.9 µM | IC50 ([1]; A-375, read-out: cell panel IC50, A375): > 31.6 µM | IC50 ([1]; A-427, read-out: cell panel IC50, A-427): 11.7 µM | IC50 ([1]; ACHN, read-out: cell panel IC50, ACHN): > 31.6 µM | IC50 ([1]; AN3-CA, read-out: cell panel IC50, AN3 CA): 9.88 µM | IC50 ([1]; AU565, read-out: cell panel IC50, AU-565): 28.3 µM | IC50 ([1]; BT-20, read-out: cell panel IC50, BT-20): > 31.6 µM | IC50 ([1]; BT-549, read-out: cell panel IC50, BT-549): > 31.6 µM | IC50 ([1]; BXPC-3, read-out: cell panel IC50, BxPC-3): 16.2 µM | IC50 ([1]; C-33-A, read-out: cell panel IC50, C-33 A): 9.4 µM | IC50 ([1]; CAL-27, read-out: cell panel IC50, CAL 27): > 31.6 µM | IC50 ([1]; CCRF-CEM, read-out: cell panel IC50, CCRF-CEM): 29 µM | IC50 ([1]; DLD-1, read-out: cell panel IC50, DLD-1): 31.1 µM | IC50 ([1]; FaDu, read-out: cell panel IC50, FaDu): > 31.6 µM | IC50 ([1]; HCT-15, read-out: cell panel IC50, HCT-15): 25.3 µM | IC50 ([1]; HCT-116, read-out: cell panel IC50, HCT-116): 30 µM | IC50 ([1]; Hs-578T, read-out: cell panel IC50, Hs 578T): > 31.6 µM | IC50 ([1]; Jurkat E6.1, read-out: cell panel IC50, Jurkat E6.1): 21.5 µM | IC50 ([1]; K562, read-out: cell panel IC50, K-562): 26.4 µM | IC50 ([1]; LS174T, read-out: cell panel IC50, LS 174T): 30.8 µM | IC50 ([1]; LoVo, read-out: cell panel IC50, LoVo): 24.4 µM | IC50 ([1]; MG-63, read-out: cell panel IC50, MG-63): 26.2 µM | IC50 ([1]; MOLT-4, read-out: cell panel IC50, MOLT-4): 21.8 µM | IC50 ([1]; MeWo, read-out: cell panel IC50, MeWo): > 31.6 µM | IC50 ([1]; NCI-H82, read-out: cell panel IC50, NCI-H82): 21 µM | IC50 ([1]; NCI-H460, read-out: cell panel IC50, NCI-H460): 27 µM | IC50 ([1]; OVCAR-3, read-out: cell panel IC50, OVCAR-3): > 31.6 µM | IC50 ([1]; RPMI-7951, read-out: cell panel IC50, RPMI-7951): 15.6 µM | IC50 ([1]; SHP77, read-out: cell panel IC50, SHP-77): 31.2 µM | IC50 ([1]; SK-N-AS, read-out: cell panel IC50, SK-N-AS): 21.1 µM | IC50 ([1]; SW48, read-out: cell panel IC50, SW48): 19.5 µM | IC50 ([1]; SW480, read-out: cell panel IC50, SW480): > 31.6 µM | IC50 ([1]; SW-620, read-out: cell panel IC50, SW620): 28.4 µM | IC50 ([1]; U2OS, read-out: cell panel IC50, U-2 OS): 25.1 µM | IC50 ([1]; U-87 MG, 72 h, read-out: IC50 in cell proliferation assay (table S5 cellpanel data)): > 31.6 µM | %-inhibition, BRAF(V600E) [2]: 6% | %-inhibition of EGFR(T790M/L858R) [3]: -0.336% | %-inhibition of EGFR(L861Q) [4]: -3.22% | %-inhibition of YES(T348I) [5]: 5% | %-inhibition, ALK(R1275Q) [6]: 49% | %-inhibition of PKACγ [7]: 11% | %-inhibition of EGFR(T790M) [8]: -8% | %-inhibition of EGFR [9]: -0.278% | %-inhibition, ABL [10]: 5% | %-inhibition of KDR [11]: 6.52% | %-inhibition, BRAF [12]: 14% | %-inhibition of EGFR(L858R) [13]: -4% | %-inhibition of FGFR1(V561M) [14]: 50% | %-inhibition, ABL(E255K) [15]: 0.0579%
